Measurements reported in patent publication US20110166123A1, “NOVEL COMPOSITIONS AND METHODS OF USE” (priority 2008, published 2011).

System: human immunodeficiency virus type 1 (HIV-1)
Assay: microbe, parasite or virus in culture
Assay type: cell-based
Details: Human immunodeficiency virus 1, HeLa, 48 h, HIV-1 luciferase reporter, HeLa cells, 48 hours after infection

First: CC(C)(C)[C@@H](CO)n1cc(C(=O)O)c(=O)c2cc(Cc3cccc(Cl)c3F)c(OCCCO)nc21 [Example 2F]
Second: CC(C)(C)[C@@H](CO)n1cc(C(=O)O)c(=O)c2cc(Cc3cccc(Cl)c3F)c(OCCCCO)nc21 [Example 2G]
The EC50 of the first is lower: < 10 nM for the first, 10 to 100 nM for the second.

CC(C)(C)[C@@H](CO)n1cc(C(=O)O)c(=O)c2cc(Cc3cccc(Cl)c3F)c(NCCCn3ccnc3)nc21 [Example 2GG] and CC(C)(C)[C@@H](CO)n1cc(C(=O)O)c(=O)c2cc(Cc3cccc(Cl)c3F)c(NCCCO)nc21 [Example 2S] fall in the same range of EC50: 10 to 100 nM for the first, 10 to 100 nM for the second.

First: CC(C)(C)[C@@H](CO)n1cc(C(=O)NCCCn2ccnc2)c(=O)c2cc(Cc3cccc(Cl)c3F)c(NCCCn3ccnc3)nc21 [Example 2HH]
Second: COCCCNc1nc2c(cc1Cc1cccc(Cl)c1F)c(=O)c(C(=O)O)cn2[C@H](CO)C(C)(C)C [Example 2U]
The EC50 of the first is higher: > 100 nM for the first, < 10 nM for the second.

First: COCCOc1nc2c(cc1Cc1cccc(Cl)c1F)c(=O)c(C(=O)O)cn2[C@H](CO)C(C)(C)C [Example 2H]
Second: COCCCOc1nc2c(cc1Cc1cccc(Cl)c1F)c(=O)c(C(=O)O)cn2[C@H](CO)C(C)(C)C [Example 2I]
The EC50 of the first is lower: < 10 nM for the first, 10 to 100 nM for the second. The first is the more potent here.

First: COc1nc2c(cc1Cc1cccc(Cl)c1F)c(=O)c(C(=O)NCCO)cn2[C@H](CO)C(C)C [Example 2II]
Second: CC(C)[C@@H](CO)n1cc(C(=O)O)c(=O)c2cc(Cc3cccc(Cl)c3F)c(F)nc21 [Example 2KK]
The EC50 of the first is higher: > 100 nM for the first, 10 to 100 nM for the second.

First: CC(C)(C)[C@@H](CO)n1cc(C(=O)O)c(=O)c2cc(Cc3cccc(Cl)c3F)c(F)nc21 [Example 2JJ]
Second: CC(C)(C)[C@@H](CO)n1cc(C(=O)O)c(=O)c2cc(Cc3cccc(Cl)c3F)c(N)nc21 [Example 3A, (S)-7-Amino-6-(3-chloro-2-fluorobenzyl)-1-(1-hydroxy-3,3-dimethylbutan-2-yl)-4-oxo-1,4-dihydro-1,8-naphthyridine-3-carboxylic acid]
The EC50 of the first is higher: 10 to 100 nM for the first, < 10 nM for the second. The second is the more potent here.

COCCCCOc1nc2c(cc1Cc1cccc(Cl)c1F)c(=O)c(C(=O)O)cn2[C@H](CO)C(C)(C)C [Example 2J] and CN(C)CCCOc1nc2c(cc1Cc1cccc(Cl)c1F)c(=O)c(C(=O)O)cn2[C@H](CO)C(C)(C)C [Example 2L] fall in the same range of EC50: 10 to 100 nM for the first, 10 to 100 nM for the second.

CN(C)CCOc1nc2c(cc1Cc1cccc(Cl)c1F)c(=O)c(C(=O)O)cn2[C@H](CO)C(C)(C)C [Example 2K] and CN(C)c1nc2c(cc1Cc1cccc(Cl)c1F)c(=O)c(C(=O)O)cn2[C@H](CO)C(C)(C)C [Example 2P] fall in the same range of EC50: 10 to 100 nM for the first, 10 to 100 nM for the second.

CC(C)(C)[C@@H](CO)n1cc(C(=O)O)c(=O)c2cc(Cc3cccc(Cl)c3F)c(OCCN3CCOCC3)nc21 [Example 2M] and CC(C)(C)[C@@H](CO)n1cc(C(=O)O)c(=O)c2cc(Cc3cccc(Cl)c3F)c(OCCN3CCCC3)nc21 [Example 2O] fall in the same range of EC50: 10 to 100 nM for the first, 10 to 100 nM for the second.

First: CC(C)(C)[C@@H](CO)n1cc(C(=O)O)c(=O)c2cc(Cc3cccc(Cl)c3F)c(OCc3cccnc3)nc21 [Example 2N]
Second: Cc1nc2c(cc1Cc1cccc(Cl)c1F)c(=O)c(C(=O)O)cn2[C@H](CO)C(C)(C)C [Example 3B, 6-(3-Chloro-2-fluorobenzyl)-1-((S)-1-hydroxymethyl-2,2-dimethyl-propyl)-7-methyl-4-oxo-1,4-dihydro-1,8-naphthyridine-3-carboxylic acid]
The EC50 of the first is lower: < 10 nM for the first, 10 to 100 nM for the second.

CC(C)(C)[C@@H](CO)n1cc(C(=O)O)c(=O)c2cc(Cc3cccc(Cl)c3F)c(NCCO)nc21 [Example 2R] and COCCNc1nc2c(cc1Cc1cccc(Cl)c1F)c(=O)c(C(=O)O)cn2[C@H](CO)C(C)(C)C [Example 2T] cannot be ordered by EC50: < 10 nM for the first, < 10 nM for the second.

CC(C)(C)[C@@H](CO)n1cc(C(=O)O)c(=O)c2cc(Cc3cccc(Cl)c3F)c(N3CC[C@@H](O)C3)nc21 [Example 2W] and CC(C)(C)[C@@H](CO)n1cc(C(=O)O)c(=O)c2cc(Cc3cccc(Cl)c3F)c(N3CCC(O)CC3)nc21 [Example 2X] fall in the same range of EC50: 10 to 100 nM for the first, 10 to 100 nM for the second.

CC(C)(C)[C@@H](CO)n1cc(C(=O)O)c(=O)c2cc(Cc3cccc(Cl)c3F)c(N3CCC(CO)CC3)nc21 [Example 2Y] and CC(C)(C)[C@@H](CO)n1cc(C(=O)O)c(=O)c2cc(Cc3cccc(Cl)c3F)c(N3CCN(CCO)CC3)nc21 [Example 2Z] fall in the same range of EC50: 10 to 100 nM for the first, 10 to 100 nM for the second.

Compared with CC(C)(C)[C@@H](CO)n1cc(C(=O)O)c(=O)c2cc(Cc3cccc(Cl)c3F)c(CCCO)nc21 [Example 3C, 6-(3-Chloro-2-fluoro-benzyl)-1-((S)-1-hydroxymethyl-2,2-dimethyl-propyl)-7-(3-hydroxy-propyl)-4-oxo-1,4-dihydro-1,8-naphthyridine-3-carboxylic acid], CC(C)[C@@H](CO)n1cc(C(=O)O)c(=O)c2cc(Cc3cccc(Cl)c3F)cnc21 [Example 4A, (S)-6-(3-chloro-2-fluorobenzyl)-1-(1-hydroxy-3-methylbutan-2-yl)-4-oxo-1,4-dihydro-1,8-naphthyridine-3-carboxylic acid] is higher in EC50: < 10 nM for the first, 10 to 100 nM for the second.

CC(C)[C@@H](CO)n1cc(C(=O)O)c(=O)c2cc(Cc3ccccc3F)cnc21 [Example 4B] and CC(C)[C@@H](CO)n1cc(C(=O)O)c(=O)c2cc(Cc3ccccc3)cnc21 [Example 4C] cannot be ordered by EC50: > 100 nM for the first, > 100 nM for the second.

O=C(O)c1cn(CCO)c2ncc(Cc3cccc(Cl)c3F)cc2c1=O [Example 4D] and O=C(O)c1cn(CCO)c2ncc(Cc3cccc(Cl)c3Cl)cc2c1=O [Example 4E] cannot be ordered by EC50: > 100 nM for the first, > 100 nM for the second.

CC(C)[C@@H](CO)n1cc(C(=O)O)c(=O)c2cc(Cc3cccc(Cl)c3F)ncc21 [Example 5A, 6-(3-Chloro-2-fluoro-benzyl)-1-((S)-1-hydroxymethyl-2-methyl-propyl)-4-oxo-1,4-dihydro-[1,7]naphthyridine-3-carboxylic acid] and CCC(C)C(CO)n1cc(C(=O)O)c(=O)c2cc(Cc3cccc(Cl)c3F)ncc21 (centres unmarked) [Example 5H] fall in the same range of EC50: 10 to 100 nM for the first, 10 to 100 nM for the second.

Compared with CC(C)[C@@H](CO)n1cc(C(=O)O)c(=O)c2cc(Cc3ccc(F)c(F)c3)ncc21 [Example 5B, 6-(3,4-Difluoro-benzyl)-1-((S)-1-hydroxymethyl-2-methyl-propyl)-4-oxo-1,4-dihydro-[1,7]naphthyridine-3-carboxylic acid], CC(C)[C@@H](CO)n1cc(C(=O)O)c(=O)c2cc(Cc3ccc(Cl)c(Cl)c3)ncc21 [Example 5Q] is lower in EC50: > 100 nM for the first, 10 to 100 nM for the second. The second is the more potent here.

CC(C)[C@@H](CO)n1cc(C(=O)O)c(=O)c2cc(Cc3cccc(Cl)c3)ncc21 [Example 5C, 6-(3-Chloro-benzyl)-1-((S)-1-hydroxymethyl-2-methyl-propyl)-4-oxo-1,4-dihydro-[1,7]naphthyridine-3-carboxylic acid] and CC(C)[C@@H](CO)n1cc(C(=O)O)c(=O)c2nc(Cc3cccc(Cl)c3)ccc21 [Example 8C, 6-(3-Chloro-benzyl)-1-((S)-1-hydroxymethyl-2-methyl-propyl)-4-oxo-1,4-dihydro-[1,5]naphthyridine-3-carboxylic acid] cannot be ordered by EC50: > 100 nM for the first, > 100 nM for the second.

COc1nc(Cc2cccc(Cl)c2F)cc2c(=O)c(C(=O)O)cn([C@H](CO)C(C)C)c12 [Example 5D, 6-(3-Chloro-2-fluoro-benzyl)-1-((S)-1-hydroxymethyl-2-methyl-propyl)-8-methoxy-4-oxo-1,4-dihydro-1,7-naphthyridine-3-carboxylic acid] and CC(C)[C@@H](CO)n1cc(C(=O)O)c(=O)c2cc(Cc3cccc(Cl)c3F)nnc21 [Example 6, 3-(3-chloro-2-fluorobenzyl)-8-(1-hydroxy-3-methylbutan-2-yl)-5-oxo-5,8-dihydropyrido[2,3-c]pyridazine-6-carboxylic acid] cannot be ordered by EC50: > 100 nM for the first, > 100 nM for the second.

CC(C)[C@H]1COc2nc(Cc3cccc(Cl)c3F)cc3c(=O)c(C(=O)O)cn1c23 [Example 5E, (S)-8-(3-chloro-2-fluoro-benzyl)-3-isopropyl-6-oxo-2,3-dihydro-6H-1-oxa-3a,9-diaza-phenalene-5-carboxylic acid] and C[C@H](CO)n1cc(C(=O)O)c(=O)c2cc(Cc3cccc(Cl)c3F)ncc21 [Example 5K] cannot be ordered by EC50: > 100 nM for the first, > 100 nM for the second.

CC[C@@H](CO)n1cc(C(=O)O)c(=O)c2cc(Cc3cccc(Cl)c3F)ncc21 [Example 5G] and CCC[C@@H](CO)n1cc(C(=O)O)c(=O)c2cc(Cc3cccc(Cl)c3F)ncc21 [Example 5I] cannot be ordered by EC50: > 100 nM for the first, > 100 nM for the second.

CCCC[C@@H](CO)n1cc(C(=O)O)c(=O)c2cc(Cc3cccc(Cl)c3F)ncc21 [Example 5J] and O=C(O)c1cn(C(CO)CO)c2cnc(Cc3cccc(Cl)c3F)cc2c1=O [Example 5L] cannot be ordered by EC50: > 100 nM for the first, > 100 nM for the second.

Compared with O=C(O)c1cn([C@H](CO)C2CCCCC2)c2cnc(Cc3cccc(Cl)c3F)cc2c1=O [Example 5M], O=C(O)c1cn([C@H](CO)CC2CCCCC2)c2cnc(Cc3cccc(Cl)c3F)cc2c1=O [Example 5N] is higher in EC50: 10 to 100 nM for the first, > 100 nM for the second. The first is the more potent here.

O=C(O)c1cn(C[C@H](O)c2ccccc2)c2cnc(Cc3cccc(Cl)c3F)cc2c1=O [Example 5O] and O=C(O)c1cn([C@@H](CO)c2ccccc2)c2cnc(Cc3cccc(Cl)c3F)cc2c1=O [Example 5P] cannot be ordered by EC50: > 100 nM for the first, > 100 nM for the second.

CCCn1cc(C(=O)OC(=O)c2ccccc2)c(=O)c2c(N)nc(SC)nc21 [Example 7A] and CCCn1cc(C(=O)OC(=O)c2ccccc2)c(=O)c2c(NC(C)=O)nc(SC)nc21 [Example 7D] cannot be ordered by EC50: > 100 nM for the first, > 100 nM for the second.

CCCn1cc(C(=O)O)c(=O)c2c(N)nc(SC)nc21 [Example 7B] and CCCn1cc(C(=O)NN)c(=O)c2c(N)nc(SC)nc21 [Example 7C] cannot be ordered by EC50: > 100 nM for the first, > 100 nM for the second.

CC(C)[C@@H](CO)n1cc(C(=O)O)c(=O)c2nc(Cc3cccc(Cl)c3F)ccc21 [Example 8A, 6-(3-Chloro-2-fluoro-benzyl)-1-((S)-1-hydroxymethyl-2-methyl-propyl)-4-oxo-1,4-dihydro-[1,5]naphthyridine-3-carboxylic acid] and CC(C)[C@@H](CO)n1cc(C(=O)O)c(=O)c2nc(Cc3ccc(F)c(F)c3)ccc21 [Example 8B, 6-(3,4-Difluoro-benzyl)-1-((S)-1-hydroxymethyl-2-methyl-propyl)-4-oxo-1,4-dihydro-[1.5]naphthyridine-3-carboxylic acid] cannot be ordered by EC50: > 100 nM for the first, > 100 nM for the second.
